Measurements: patent publication US20140011781A1, “METHOD FOR TREATING OR […] USING TESTIS EXTRACT AS ACTIVE INGREDIENT” (Industry-Academic Cooperation Foundation, Yeungnam …, priority 2009, published 2014)

What was measured:
Type in all cases: in vivo, CD-1 mouse
[1] = system: CD34 hematopoietic stem cells in bone marrow; assay: Numerical change of CD34-marked hematopoietic stem cell using FACS; settings: 0.1% extract or nandrolone injected to mice, femur bone marrow
Method: (§1) Next, the pig testis extracts M1 and M2 were dissolved with first solvent of 100% ethanol, and then sesame oil was added to prepare at a concentration of 1 g/ml. 100% was defined as 100-fold diluted one with the sesame oil, and then the sample was used by diluting to be a concentration of 0.1%, 1%, 10% or 50%. Each concentration (0.1%, 1%, 10%, 50% or 100%) of the pig testis extract was subcutaneously injected to CD-1 mouse of 6 to 8-week raised under physiological condition for 21 days (6 mice per each group).
In the Experimental Example, CD34, which is a marker for hematopoietic stem cell, was used in order to confirm whether a pig testis extract stimulates proliferation of hematopoietic stem cells, or not. Each of 0.1% pig testis extracts M1 and M2 was injected to the mice as the above Experimental Example; then the mice were scarified; their femurs were collected; and then bone marrows were extracted by using PBS solution.
Since then, after reacting with CD34 specific antibody, CD34 hematopoietic stem cells were counted for the analysis by using a fluorescent activated cell sorter.

[2] = system: reproductive period; assay: Analysis of reproductive period change by vaginal smearing; settings: during 21 days of subcutaneous injection, female CD-1 mice; nandrolone 3 mg/kg BW; compared with sesame oil control
Method: as §1
As mentioned above, each concentration of the pig testis extract was subcutaneously injected to 6-health CD-1 female mice raised under physiological condition for 21 days. Vaginal smearing was performed to analyze reproductive period change during an injection. As a control group, the mice injected with only sesame oil and the mice injected with only 19-nortestosterone (3 mg/kg BW) were used to analyze the effects. At 21 days after treating, the mice were anesthetized with sodium pentobarbital and then their peripheral bloods were collected. And immediately, the mice were sacrificed by a luxation of the cervical vertebral, and a femur for obtaining bone marrow and liver tissue, ovary, and uterus for analyzing cytotoxicity were removed. Some of them were fixed for a histological analysis and some of them were stored at a deep-freezer of −80° C. […]

[3] = system: red blood cell in peripheral blood; assay: Numerical change of RBC in peripheral blood; settings: 0.1% extract or nandrolone injected to mice
Method: as §1
Peripheral bloods were obtained after treating each of 0.1% pig testis extracts M1 and M2 under the same condition as the above Experimental Example. Since then, the number of RBC (Red Blood Cell) was counted by using an analyzer.

SMILES: C[C@]12CC[C@H]3[C@@H](CCC4=CC(=O)CC[C@@H]43)[C@@H]1CC[C@@H]2O [nandrolone]
- number of CD34 hematopoietic stem cell in bone marrow [1]: significantly increased
- progress of reproductive period (vaginal smearing) [2]: gradually irregular
- number of RBC in peripheral blood compared with control group [3]: significantly increased
